Assays:
[1] = tested on: Mouse transplantable tumour Sarcoma 180 cells; experiment: Measurement of antitumour activity value (Sarcoma 180 subcutaneously transplanted, oral administration); format: in vivo, male ICR/JCL mice; conditions: once a day for 9 consecutive days, tumour weight on day 12, Sarcoma 180, ICR/JCL mice; for ED50 (dose at which tumour proliferation-inhibitory rate is over 50%): 17280 min
Method: Mouse transplantable tumour Sarcoma 180 cells (5×10^6 cells) were transplanted subcutaneously into male ICR/JCL mice (weighing 27-30 g) in the back. The test compounds were dissolved or suspended in a 0.5 weight % aqueous solution of CMC containing Tween 80 at the concentration of 0.1 weight % to afford test preparations. Using 7 animals per group, the test preparations were orally administered to each mouse at the dose of 0.1 ml/10 g mouse body weight once a day for consecutive 9 days from the following day of the day when the tumours were transplanted.
On the twelfth day from the day of tumour-transplantation, the average weight of tumours for each of the test compounds at the respective doses was measured. The weight was compared with the average weight of the tumours of the control group, and the tumour proliferation-inhibitory rates of the test compounds based on that of the control group were estimated at the respective dose.

[2] = tested on: tumour; conditions: cited from earlier work
[3] = in vivo; cited from earlier work
[4] = in vivo; cited from earlier work; remark: listed apart in the source

Row | SMILES | ED50 (dose at which tumour proliferation-inhibitory rate is over 50%) [1] [mg/kg] | other results
1 | O=c1[nH]c(=O)n([C@H]2C[C@H](O)[C@@H](COP(=O)(Oc3ccc(Cl)cc3Cl)Oc3ccc(Cl)cc3Cl)O2)cc1F [Ex. 11, Di(2,4-dichlorophenyl) 2'-deoxy-5-fluoro-5-uridylate] | 1.5 | –
2 | O=c1[nH]c(=O)n([C@H]2C[C@H](O)[C@@H](COP(=O)(Oc3ccccc3)Oc3ccccc3)O2)cc1F [Ex. 1, diphenyl 2'-deoxy-5-fluoro-5'-uridylate] | 11.1 | –
3 | O=c1[nH]c(=O)n([C@H]2C[C@H](O)[C@@H](COP(=O)(Oc3ccccc3Cl)Oc3ccccc3Cl)O2)cc1F [Ex. 8, Di-o-chlorophenyl 2'-deoxy-5-fluoro-5'-uridylate] | 10.0 | –
4 | O=c1[nH]c(=O)n([C@H]2C[C@H](O)[C@@H](COP(=O)(Oc3ccc([N+](=O)[O-])cc3)Oc3ccc([N+](=O)[O-])cc3)O2)cc1F [Ex. 24, di-p-nitrophenyl 2'-deoxy-5-fluoro-5'-uridylate] | 5.4 | –
5 | O=c1[nH]c(=O)n([C@H]2C[C@H](O)[C@@H](COP(=O)(Oc3cccc(Cl)c3Cl)Oc3cccc(Cl)c3Cl)O2)cc1F [Ex. 10, Di(2,3-dichlorophenyl) 2'-deoxy-5-fluoro-5'-uridylate] | 3.6 | –
6 | O=c1[nH]c(=O)n([C@H]2C[C@H](O)[C@@H](COP(=O)(Oc3ccc(Br)cc3)Oc3ccc(Br)cc3)O2)cc1F [Ex. 18, Di-p-bromophenyl 2'-deoxy-5-fluoro-5'-uridylate] | 1.2 | –
7 | O=c1[nH]c(=O)n([C@H]2C[C@H](O)[C@@H](COP(=O)(Oc3cccc(Cl)c3)Oc3cccc(Cl)c3)O2)cc1F [Ex. 9, Di-m-chlorophenyl 2'-deoxy-5-fluoro-5'-uridylate] | 1.4 | –
8 | O=c1[nH]c(=O)n([C@H]2C[C@H](O)[C@@H](CO)O2)cc1F [FdUrd, 2'-deoxy-5-fluorouridine] | – | tumour proliferation-inhibitory action (in words) ([2]; cytostatic potency test (in vivo)): extremely potent tumour proliferation-inhibitory action; effect as compared with 5-fluorouracil (in words) ([2]; in vivo): can not be found to exhibit any particular superior effects as compared with 5-fluorouracil; decomposition into 5-fluorouracil (in words) [3]: a large portion thereof is decomposed into 5-fluorouracil; metabolism and excretion (in words) [3]: rapidly metabolized and excreted; toxicity of FdUrd (in words) [4]: the toxicity thereof is strong; ED50 ([1]; Mus musculus, 288 h, read-out: ED50 (dose at which tumour proliferation-inhibitory rate is over 50%)): 59.5 mg/kg
9 | O=c1[nH]c(=O)n([C@H]2C[C@H](O)[C@@H](COP(=O)(Oc3ccc(Cl)cc3)Oc3ccc(Cl)cc3)O2)cc1F [Ex. 7, di-p-chlorophenyl 2'-deoxy-5-fluoro-5'-uridylate] | 1.4 | –
10 | N#Cc1ccc(OP(=O)(OC[C@H]2O[C@@H](n3cc(F)c(=O)[nH]c3=O)C[C@@H]2O)Oc2ccc(C#N)cc2)cc1 [Ex. 16, Di-p-cyanophenyl 2'-deoxy-5-fluoro-5'-uridylate] | 6.1 | –
11 | O=c1[nH]c(=O)n([C@H]2C[C@H](O)[C@@H](COP(=O)(Oc3ccc(C(F)(F)F)cc3)Oc3ccc(C(F)(F)F)cc3)O2)cc1F [Ex. 19, Di-p-trifluoromethylphenyl 2'-deoxy-5-fluoro-5'-uridylate] | 0.9 | –
12 | O=c1[nH]c(=O)n([C@H]2C[C@H](O)[C@@H](COP(=O)(Sc3ccc(Cl)cc3)Sc3ccc(Cl)cc3)O2)cc1F [Ex. 26, 2'-deoxy-5-fluorouridine 5'-(S,S-di-p-chlorophenylphosphorodithioate)] | 4.2 | –
13 | O=c1[nH]c(=O)n([C@H]2C[C@H](O)[C@@H](COP(=O)(Oc3ccc(F)cc3)Oc3ccc(F)cc3)O2)cc1F [Ex. 17, Di-p-fluorophenyl 2'-deoxy-5-fluoro-5'-uridylate] | 1.3 | –
14 | O=C(c1ccccc1)n1c(=O)c(F)cn([C@H]2C[C@H](O)[C@@H](COP(=O)(Oc3ccccc3)Oc3ccccc3)O2)c1=O [Ex. 3, diphenyl 3-benzoyl-2'-deoxy-5-fluoro-5'-uridylate] | 7.0 | –
15 | O=c1[nH]c(=O)n([C@H]2C[C@H](O)[C@@H](COP(=O)(Oc3ccc4c(c3)OCO4)Oc3ccc4c(c3)OCO4)O2)cc1F [Ex. 13, Di(3,4-methylenedioxyphenyl) 2'-deoxy-5-fluoro-5'-uridylate] | 25.0 | –
16 | CC(=O)O[C@H]1C[C@H](n2cc(F)c(=O)[nH]c2=O)O[C@@H]1COP(=O)(Oc1ccc(Cl)cc1)Oc1ccc(Cl)cc1 [Ex. 22, di-p-chlorophenyl 3'-acetyl-2'-deoxy-5-fluoro-5'-uridylate] | 1.2 | –
17 | Cc1cc(OP(=O)(OC[C@H]2O[C@@H](n3cc(F)c(=O)[nH]c3=O)C[C@@H]2O)Oc2ccccc2)ccc1Cl (stereo partly drawn) [Ex. 6, 4-chloro-3-methylphenyl phenyl 2'-deoxy-5-fluoro-5'-uridylate] | 6.2 | –
18 | O=c1[nH]c(=O)n([C@H]2C[C@H](O)[C@@H](COP(=O)(Oc3ccc(Cl)c(Cl)c3)Oc3ccc(Cl)c(Cl)c3)O2)cc1F [Ex. 12, Di(3,4-dichlorophenyl) 2'-deoxy-5-fluoro-5'-uridylate] | 2.5 | –
19 | CC(C)=CCCC(C)CCOP(=O)(OC[C@H]1O[C@@H](n2cc(F)c(=O)[nH]c2=O)C[C@@H]1O)Oc1ccccc1 (stereo partly drawn) [Ex. 5, citroneryl phenyl 2'-deoxy-5-fluoro-5'-uridylate] | 23.8 | –

— patent US5032680A (priority 1988, dated 1991)
